Our source for the IC50 values is patent US8143393B2, “Substituted 4-amino-pyrrolotriazine derivatives useful for treating hyper-proliferative disorders and diseases associated with angiogenesis” (Bayer HealthCare LLC, priority 2005, dated 2012).

A value given as a limit tells only on which side of the number the result lay.

The target of this test is T1, FGFR-1 (Homo sapiens, UniProt P11362).
T1 construct: GST; made in house
Kind of test: FGFR-1 TR-FRET biochemical assay. In short, it runs like this: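 In this LANCE time-resolved FRET format, compounds at final 10 μM–0.128 nM (1% DMSO, 1:5 series) were preincubated before enzyme start. Reactions ran for one hour at room temperature with 0.6 uM ATP, 25 nM biotinylated poly GT and 5 nM GST-tagged FGFR1. Inhibition was calculated from the 665/615 nm ratio minus the ATP-free background.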
On the technique in general: In TR-FRET formats the signal depends on donor and acceptor labels being close together.

[1] abbreviates: 0.6 uM ATP, 5 nM FGFR1-GST, bounds given in nM.
[2] abbreviates: upper bound of the bin 'greater than 100 nM but less than 1 μM' (lower bound in E1).

T1 sequence (P11362 22-822): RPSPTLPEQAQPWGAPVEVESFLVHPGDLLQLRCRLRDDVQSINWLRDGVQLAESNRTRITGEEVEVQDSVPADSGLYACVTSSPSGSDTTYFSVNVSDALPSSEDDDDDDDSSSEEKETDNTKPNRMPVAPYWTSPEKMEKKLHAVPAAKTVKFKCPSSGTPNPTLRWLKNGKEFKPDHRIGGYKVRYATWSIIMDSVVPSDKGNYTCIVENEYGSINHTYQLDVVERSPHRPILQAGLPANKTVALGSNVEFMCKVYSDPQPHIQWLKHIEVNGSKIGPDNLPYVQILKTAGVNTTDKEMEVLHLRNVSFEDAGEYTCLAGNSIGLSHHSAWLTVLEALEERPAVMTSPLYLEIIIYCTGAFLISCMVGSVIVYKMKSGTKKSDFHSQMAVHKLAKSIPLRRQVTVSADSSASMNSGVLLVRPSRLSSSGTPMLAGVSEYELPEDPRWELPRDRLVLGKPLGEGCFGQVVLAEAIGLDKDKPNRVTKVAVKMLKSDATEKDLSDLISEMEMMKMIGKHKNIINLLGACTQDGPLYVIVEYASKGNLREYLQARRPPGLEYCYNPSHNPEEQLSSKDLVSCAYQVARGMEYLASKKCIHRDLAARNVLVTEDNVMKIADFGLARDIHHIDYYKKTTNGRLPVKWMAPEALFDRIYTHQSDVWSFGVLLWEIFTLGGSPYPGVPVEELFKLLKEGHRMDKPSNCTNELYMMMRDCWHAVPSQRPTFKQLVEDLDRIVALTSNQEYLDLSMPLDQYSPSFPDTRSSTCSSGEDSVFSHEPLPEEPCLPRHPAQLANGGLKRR

Broadly, the IC50 is the concentration that gives 50% inhibition. A lower IC50 goes with inhibition by little substance. Take `CN1CCN(CCCc2cc(-c3ccc(NC(=O)Nc4cc(C(F)(F)F)ccc4F)c(F)c3)c3c(N)ncnn23)CC1` [Example 187, N-(4-{4-amino-7-[3-(4-methylpiperazin-1-yl)propyl]pyrrolo[2,1-f][1,2,4]triazin-5-yl}-2-fluorophenyl)-N′-[2-fluoro-5-(trifluoromethyl)phenyl]urea]: the IC50 under setting [1] was below 10 nM. On the same count and under the same terms, then `Nc1ncnn2c(CN3CCOCC3)cc(-c3ccc(NC(=O)Nc4ccc(F)c(C(F)(F)F)c4)nc3)c12` [Example 18, N-{5-[4-amino-7-(morpholin-4-ylmethyl)pyrrolo[2,1-f][1,2,4]triazin-5-yl]pyridin-2-yl}-N′-[4-fluoro-3-(trifluoromethyl)phenyl]urea], with below 10 nM; and `Nc1ncnn2c(CN3CCOCC3)cc(-c3ccc(NC(=O)Nc4cc(C(F)(F)F)ccc4Cl)cc3)c12` [Example 52, N-{4-[4-amino-7-(morpholin-4-ylmethyl)pyrrolo[2,1-f][1,2,4]triazin-5-yl]phenyl}-N′-[2-chloro-5-(trifluoromethyl)phenyl]urea], with below 10 nM. Molecule `Nc1ncnn2c(CN3CCOCC3)cc(-c3ccc(NC(=O)Nc4ccc(F)cn4)cc3)c12` [Example 55, N-{4-[4-amino-7-(morpholin-4-ylmethyl)pyrrolo[2,1-f][1,2,4]-triazin-5-yl]phenyl}-N′-(5-fluoropyridin-2-yl)urea] displayed a half-inhibitory concentration (IC50) under setting [1] above 100 nM and a half-maximal inhibitory concentration (IC50) under setting [2] below 1000 nM. For `Nc1ncnn2c(C3CCN(C(=O)CO)CC3)cc(-c3ccc(NC(=O)Nc4cc(C(F)(F)F)ccc4F)c(F)c3)c12` [Example 114, N-4-[4-amino-7-(1-glycoloylpiperidin-4-yl)pyrrolo[2,1-f][1,2,4]triazin-5-yl]-2-fluorophenyl-N′-[2-fluoro-5-(trifluoromethyl)phenyl]urea], the IC50 under setting [1] is below 10 nM. `CN1CCC(c2cc(-c3ccc(NC(=O)Nc4cc(C(F)(F)F)ccc4F)c(F)c3)c3c(N)ncnn23)CC1` [Example 113, N-4-[4-amino-7-(1-methylpiperidin-4-yl)pyrrolo[2,1-f][1,2,4]triazin-5-yl]-2-fluorophenyl-N′-[2-fluoro-5-(trifluoromethyl)phenyl]urea] came in with an IC50 under setting [1] below 10 nM. Take `Nc1ncnn2c(C3CCN(C(=O)C(F)(F)F)CC3)cc(-c3ccc(NC(=O)Nc4cc(C(F)(F)F)ccc4F)c(F)c3)c12` [Example 112, N-(4-4-amino-7-[1-(trifluoroacetyl)piperidin-4-yl]pyrrolo[2,1-f][1,2,4]triazin-5-yl-2-fluorophenyl)-N′-[2-fluoro-5-(trifluoromethyl)-phenyl]urea]: the IC50 runs as follows: under setting [1], above 100 nM; under setting [2], below 1000 nM.

Regarding `Nc1ncnn2c(CN3CCS(=O)(=O)CC3)cc(-c3ccc(NC(=O)Nc4cc(C(F)(F)F)ccn4)c(F)c3)c12` [Example 78, N-(4-{4-amino-7-[(1,1-dioxidothiomorpholin-4-yl)methyl]pyrrolo[2,1-f][1,2,4]triazin-5-yl}-2-fluorophenyl)-N′-[4-(trifluoromethyl)pyridin-2-yl]urea], the IC50 under setting [1] is below 10 nM.

Regarding `CN(C)CCCc1cc(-c2ccc(NC(=O)Nc3cc(C(F)(F)F)ccc3F)c(F)c2)c2c(N)ncnn12` [Example 194, N-(4-{4-amino-7-[3-(dimethylamino)propyl]pyrrolo[2,1-f][1,2,4]triazin-5-yl}-2-fluorophenyl)-N′-[2-fluoro-5-(trifluoromethyl)phenyl]urea], the IC50 under setting [1] is below 10 nM. Turning to `CCc1cccc(NC(=O)Nc2ccc(-c3cc(CN4CCS(=O)(=O)CC4)n4ncnc(N)c34)cc2F)c1` [Example 75, N-(4-{4-amino-7-[(1,1-dioxidothiomorpholin-4-yl)methyl]pyrrolo[2,1-f][1,2,4]triazin-5-yl}-2-fluorophenyl)-N′-(3-ethylphenyl)urea], the half-inhibitory concentration (IC50) under setting [1] was below 10 nM.

Under setting [1], `CC(C)(C)NC(=O)N1CCC(c2cc(-c3ccc(NC(=O)Nc4cc(C(F)(F)F)ccn4)c(F)c3)c3c(N)ncnn23)CC1` [Example 124, 4-4-amino-5-[3-fluoro-4-([4-(trifluoromethyl)pyridin-2-yl]carbamoylamino)phenyl]pyrrolo[2,1-f][1,2,4]triazin-7-yl-N-tert-butylpiperidine-1-carboxamide] returned an IC50 of 10 to 100 nM.

As to `CCOCCN1CCC(c2cc(-c3ccc(NC(=O)Nc4cc(C(F)(F)F)ccc4F)c(Cl)c3)c3c(N)ncnn23)CC1` [Example 243, N-(4-{4-amino-7-[1-(2-ethoxyethyl)piperidin-4-yl]pyrrolo[2,1-f][1,2,4]triazin-5-yl}-2-chlorophenyl)-N′-[2-fluoro-5-(trifluoromethyl)phenyl]urea], the IC50 under setting [1] fell in the range of 10 to 100 nM. In turn, `CC(C)(C)c1cc(NC(=O)Nc2ccc(-c3cc(CN4CCOCC4)n4ncnc(N)c34)cc2)on1` [Example 2, N-{4-[4-amino-7-(morpholin-4-ylmethyl)pyrrolo[2,1-f][1,2,4]triazin-5-yl]phenyl}-N′-(3-tert-butylisoxazol-5-yl)urea] returned an IC50 under setting [1] below 10 nM. In turn, `CCS(=O)(=O)N1CCN(Cc2cc(-c3ccc(NC(=O)Nc4cc(C(F)(F)F)ccc4F)cc3)c3c(N)ncnn23)CC1` [Example 84, N-[4-(4-amino-7-{[4-(ethylsulfonyl)piperazin-1-yl]methyl}pyrrolo[2,1-f][1,2,4]triazin-5-yl)phenyl]-N′-[2-fluoro-5-(trifluoromethyl)phenyl]urea] yielded an IC50 under setting [1] of 10 to 100 nM.

Turning to `Nc1ncnn2c(CN3CCOCC3)cc(-c3ccc(NC(=O)Nc4cccc(C(F)(F)F)c4)c(C(F)(F)F)c3)c12` [Example 269, N-[4-[4-amino-7-(morpholin-4-ylmethyl)pyrrolo[2,1-f][1,2,4]triazin-5-yl]-2-(trifluoromethyl)phenyl]-N′-[3-(trifluoromethyl)phenyl]urea], the IC50 under setting [1] is below 10 nM.

As to `Nc1ncnn2c(C3CCNC3)cc(-c3ccc(NC(=O)Nc4cc(C(F)(F)F)ccc4F)cc3)c12` (centres unmarked) [Example 206, 1-[4-(4-amino-7-pyrrolidin-3-ylpyrrolo[2,1-f][1,2,4]triazin-5-yl)phenyl]-3-[2-fluoro-5-(trifluoromethyl)phenyl]urea], the IC50 under setting [1] is below 10 nM. Same read-out and setting: then `Nc1ncnn2c(CN3CCOCC3)cc(-c3ccc(NC(=O)Nc4cccc(Cl)c4)c(F)c3)c12` [Example 66, N-4-[4-amino-7-(morpholin-4-ylmethyl)pyrrolo[2,1-f][1,2,4]triazin-5-yl]-2-fluorophenyl-N′-(3-chlorophenyl)urea], with 10 to 100 nM; and `CC(C)(C)OC(=O)N1CCN(Cc2cc(-c3ccc(NC(=O)Nc4cc(C(F)(F)F)ccc4F)c(F)c3)c3c(N)ncnn23)CC1` [Example 82, tert-butyl 4-[(4-amino-5-{3-fluoro-4-[({[2-fluoro-5-(trifluoromethyl)phenyl]amino}carbonyl)amino]phenyl}pyrrolo[2,1-f][1,2,4]triazin-7-yl)methyl]piperazine-1-carboxylate], with 10 to 100 nM. As to `Cc1cccc(NC(=O)Nc2ccc(-c3cc(CN4CCOCC4)n4ncnc(N)c34)cc2)n1` [Example 57, N-{4-[4-amino-7-(morpholin-4-ylmethyl)pyrrolo[2,1-f][1,2,4]-triazin-5-yl]phenyl}-N′-(6-methylpyridin-2-yl)urea], the IC50 under setting [1] is above 100 nM and the 50% inhibitory concentration (IC50) under setting [2] is below 1000 nM. In turn, `Nc1ncnn2c(CN3CCCOCC3)cc(-c3ccc(NC(=O)Nc4cc(C(F)(F)F)ccc4F)cc3)c12` [Example 167, N-{4-[4-amino-7-(1,4-oxazepan-4-ylmethyl)pyrrolo[2,1-f][1,2,4]triazin-5-yl]phenyl}-N′-[2-fluoro-5-(trifluoromethyl)phenyl]urea] came in with an IC50 under setting [1] below 10 nM. The same measure, in the same setting: then `Nc1ncnn2c(C(=O)CO)cc(-c3ccc(NC(=O)Nc4cc(C(F)(F)F)ccc4F)c(F)c3)c12` [Example 234, N-[4-(4-amino-7-glycoloylpyrrolo[2,1-f][1,2,4]triazin-5-yl)-2-fluorophenyl]-N′-[2-fluoro-5-(trifluoromethyl)phenyl]urea], with 10 to 100 nM; and `COC[C@H]1CCCN1C(=O)c1cc(-c2ccc(NC(=O)Nc3cc(C(F)(F)F)ccc3F)c(F)c2)c2c(N)ncnn12` [Example 284, N-[4-(4-amino-7-{[2-(methoxymethyl)pyrrolidin-1-yl]carbonyl}pyrrolo[2,1-f][1,2,4]triazin-5-yl)-2-fluorophenyl]-N′-[2-fluoro-5-(trifluoromethyl)phenyl]urea], with 10 to 100 nM. In turn, `Nc1ncnn2c(C3CCN(C(=O)CO)CC3)cc(-c3ccc(NC(=O)Nc4cc(C(F)(F)F)ccc4F)c(Cl)c3)c12` [Example 173, N-{4-[4-amino-7-(1-glycoloylpiperidin-4-yl)pyrrolo[2,1-f][1,2,4]triazin-5-yl]-2-chlorophenyl}-N′-[2-fluoro-5-(trifluoromethyl)phenyl]urea] yielded a 50% inhibitory concentration (IC50) under setting [1] below 10 nM. Take `Nc1ncnn2c(CN3CCOCC3)cc(-c3ccc(NC(=O)Nc4cc(C(F)(F)F)ccc4F)c(Cl)c3)c12` [Example 128, N-4-[4-amino-7-(morpholin-4-ylmethyl)pyrrolo[2,1-f][1,2,4]triazin-5-yl]-2-chlorophenyl-N′-[2-fluoro-5-(trifluoromethyl)phenyl]urea]: the concentration for half-maximal inhibition (IC50) under setting [1] was below 10 nM.

As to `CC(=O)c1cccc(NC(=O)Nc2ccc(-c3cc(CN4CCOCC4)n4ncnc(N)c34)cc2)c1` [Example 59, N-(3-acetylphenyl)-N′-{4-[4-amino-7-(morpholin-4-ylmethyl)pyrrolo[2,1-f][1,2,4]triazin-5-yl]phenyl}urea], the IC50 under setting [1] fell in the range of 10 to 100 nM. Still for that read-out and setting: then `Nc1ncnn2c(CN3CCS(=O)(=O)CC3)cc(-c3ccc(NC(=O)Nc4cc(C(F)(F)F)ccc4F)c(F)c3)c12` [Example 79, N-(4-{4-amino-7-[(1,1-dioxidothiomorpholin-4-yl)methyl]pyrrolo[2,1-f][1,2,4]triazin-5-yl}-2-fluorophenyl)-N′-[2-fluoro-5-(trifluoromethyl)phenyl]urea], with below 10 nM.
